Laboratory results reported in PMC6943434, “Novel Homo-Bivalent and Polyvalent Compounds Based on Ligustrazine and Heterocyclic Ring as Anticancer Agents” (Molecules, 2019).
Read-outs that look alike come from different tables or passages of the source.

Columns and labels:
[1] = tested on: HeLa (cervical cancer cell line); assay: MTT cell viability assay, HeLa; format: cell-based; settings: Homo sapiens, 48 h, read-out: Antiproliferative Activity IC50 ± SEM, HeLa
Description: (§1) The tested cells were obtained from Shanghai Institute of Biochemistry and Cell Biology of the Chinese Academy of Sciences (Shanghai, China). HeLa and Hep G2 cell lines were cultured in Dulbecco’s modified Eagle’s medium (DMEM; gibco, Life Technologies, Carlsbad, CA, USA) supplemented with 10% fetal bovine serum (FBS; Biological Industries), 100 U/mL penicillin-streptomycin (PS; gibco, Life Technologies, Carlsbad, CA, USA). MCF-7 and A549 cell lines were maintained in RPMI-1640 media (gibco, Life Technologies, Carlsbad, CA, USA) supplemented with 10% FBS and 100 U/mL PS. FaDu cell lines were cultured in minimum essential medium (MEM; Gibco, Life Technologies, Carlsbad, CA, USA) supplemented with 10% FBS and 100 U/mL PS. MCF 10A cell lines were maintained in Mammary MEGM kit (Lonza/Clonetics) supplemented with 100 ng/mL cholera toxin (Sigma, Shanghai, China). Cell lines were grown at 37 °C in a humidified atmosphere of 5% CO2.
(§2) The growth-inhibitory effects against HeLa, Hep G2, MCF-7, FaDu, and A549 cancer cells and normal cell lines MCF 10A were determined by MTT assay. […] Cells were seeded in 96 well plates at a density of 1 × 10^4 cells per well and incubated for 24 h at 37 °C in a humidified atmosphere of 5% CO2. The cells were then incubated with various concentrations of drugs for 48 h in a 5% CO2 incubator at 37 °C. After treatment with 1 mg/mL 3-(4,5-dimethylthiazol-2-yl)-2,5-diphenyltetrazolium bromide (MTT) solution for 4 h, the formazan crystals were dissolved in 100 µL DMSO in each well. Plates were read on a microplate reader (Thermo Varioskan Flash 3001) at 490 nm. The experiment was performed in triplicate. The inhibitory concentration at 50% (IC50) was calculated based on concentration-inhibition relationships via regression using SPSS software (Version 17.0).

[2] = tested on: Hep G2 (hepatocarcinoma cell line); assay: MTT cell viability assay, Hep G2; format: cell-based; settings: Homo sapiens, HepG2, 48 h, read-out: Antiproliferative Activity IC50 ± SEM, Hep G2
Description: as §1, §2

[3] = tested on: MCF-7 (breast cancer cell line); assay: MTT cell viability assay, MCF-7; format: cell-based; settings: Homo sapiens, MCF7, 48 h, read-out: Antiproliferative Activity IC50 ± SEM, MCF-7
Description: as §1, §2

[4] = tested on: FaDu (head and neck squamous carcinoma cell line); assay: MTT cell viability assay, FaDu; format: cell-based, human; settings: for SI: selectivity index: SI = IC50 (MCF 10A)/IC50 (FaDu); for IC50: 48 h, MTT
Description: as §1, §2

[5] = tested on: A549 (epithelial cancer cell line); assay: MTT cell viability assay, A549; format: cell-based; settings: Homo sapiens, 48 h, read-out: Antiproliferative Activity IC50 ± SEM, A549
Description: as §1, §2

[6] = tested on: MCF 10A (normal mammary epithelial cell); assay: MTT cell viability assay, MCF 10A; format: cell-based; settings: Homo sapiens, 48 h, normal cells, read-out: Antiproliferative Activity IC50 ± SEM, MCF 10A
[7] = Homo sapiens, FaDu, read-out: Antiproliferative Activity IC50 ± SEM, FaDu
[8] = read-out: Antiproliferative Activity IC50 ± SEM, FaDu

O=C(NCCCCCCCCCCNC(=O)c1cccnc1)c1cccnc1 [Compound 10e, N,N′-(Decane-1,10-Diyl)Dinicotinamide]
IC50 [1]: > 100 µM | IC50 [2]: > 100 µM | IC50 [3]: > 100 µM | SI: selectivity index [4]: 154.40 | IC50 [5]: 2.94 ± 0.25 µM | IC50 [6]: 38.6 ± 2.48 µM

O=C(NCCCCCCCCCCNC(=O)c1ccccc1)c1ccccc1 [Compound 11e, N,N′-(Decane-1,10-Diyl)Dibenzamide]
IC50 [1]: > 100 µM | IC50 [2]: > 100 µM | IC50 [3]: > 100 µM | IC50 [4, 7]: < 1000 nM | IC50 [4, 8]: 500 ± 60 nM | SI: selectivity index [4]: 161.08 | IC50 [5]: 64.3 ± 3.46 µM | IC50 [6]: 80.5 ± 7.6 µM

O=C(NCCCCCCCCCCNC(=O)c1ccc2ccccc2c1)c1ccc2ccccc2c1 [Compound 12e, N,N′-(Decane-1,10-Diyl)Bis(2-Naphthamide)]
IC50 [1]: > 100 µM | IC50 [2]: > 100 µM | IC50 [3]: > 100 µM | IC50 [4, 7]: 1330 ± 70 nM | SI: selectivity index [4]: >75.19 | IC50 [5]: 8.77 ± 0.47 µM | IC50 [6]: > 100 µM

O=C(NCCCCCCCCCCNC(=O)c1ccncc1)c1ccncc1 [Compound 13e, N,N′-(Decane-1,10-Diyl)Diisonicotinamide]
IC50 [1]: > 100 µM | IC50 [2]: > 100 µM | IC50 [3]: > 100 µM | IC50 [4, 7]: 48300 ± 3170 nM | SI: selectivity index [4]: >2.07 | IC50 [5]: > 100 µM | IC50 [6]: > 100 µM

O=C(NCCCCCCCCCCNC(=O)c1ccco1)c1ccco1 [Compound 14e, N,N′-(Decane-1,10-Diyl)Bis(Furan-2-Carboxamide)]
IC50 [1]: > 100 µM | IC50 [2]: 97.8 ± 1.55 µM | IC50 [3]: > 100 µM | IC50 [4, 7]: 6330 ± 650 nM | SI: selectivity index [4]: 3.13 | IC50 [5]: 44.37 ± 0.29 µM | IC50 [6]: 19.8 ± 1.41 µM

O=C(NCCCCCCCCCCNC(=O)c1ccccn1)c1ccccn1 [Compound 15e, N,N′-(Decane-1,10-Diyl)Dipicolinamide]
IC50 [1]: 37.7 ± 4.32 µM | IC50 [2]: 26.3 ± 5.36 µM | IC50 [3]: 21.5 ± 1.47 µM | IC50 [4, 7]: 8850 ± 450 nM | SI: selectivity index [4]: 6.18 | IC50 [5]: 23.08 ± 0.12 µM | IC50 [6]: 54.6 ± 5.92 µM

O=C(NCCCCCCCCCCNC(=O)c1cnccn1)c1cnccn1 [Compound 16e, N,N′-(Decane-1,10-Diyl)Bis(Pyrazine-2-Carboxamide)]
IC50 [1]: > 100 µM | IC50 [2]: > 100 µM | IC50 [3]: > 100 µM | IC50 [4, 7]: 88100 ± 1370 nM | IC50 [5]: > 100 µM | IC50 [6]: > 100 µM

O=C(NCCCCCCCCCCNC(=O)c1cnc2ccccc2c1)c1cnc2ccccc2c1 [Compound 17e, N,N′-(Decane-1,10-Diyl)Bis(Quinoline-3-Carboxamide)]
IC50 [1]: > 20 µM | IC50 [2]: > 20 µM | IC50 [3]: > 20 µM | SI: selectivity index [4]: >84.75 | IC50 [5]: > 20 µM | IC50 [6]: > 20 µM

O=C(NCCCCCCCCCCNC(=O)c1ccc2ncccc2c1)c1ccc2ncccc2c1 [Compound 18e, N,N′-(Decane-1,10-Diyl)Bis(Quinoline-6-Carboxamide)]
IC50 [1]: > 20 µM | IC50 [2]: > 20 µM | IC50 [3]: > 20 µM | IC50 [4, 7]: < 1000 nM | IC50 [4, 8]: 697 ± 21 nM | SI: selectivity index [4]: >28.69 | IC50 [5]: > 20 µM | IC50 [6]: > 20 µM

O=C(NCCCCCCCCCCNC(=O)c1ccc2nc[nH]c2c1)c1ccc2nc[nH]c2c1 [Compound 19e, N,N′-(Decane-1,10-Diyl)Bis(1H-Benzo[d]Imidazole-6-Carboxamide)]
IC50 [1]: > 20 µM | IC50 [2]: > 20 µM | IC50 [3]: > 20 µM | IC50 [4, 7]: 8740 ± 440 nM | SI: selectivity index [4]: >2.29 | IC50 [5]: > 20 µM | IC50 [6]: > 20 µM

O=C(NCCCCCCCCCCNC(=O)c1cc2ccccc2oc1=O)c1cc2ccccc2oc1=O [Compound 20e, N,N′-(Decane-1,10-Diyl)Bis(2-Oxo-2H-Chromene-3-Carboxamide)]
IC50 [1]: > 20 µM | IC50 [2]: > 20 µM | IC50 [3]: > 20 µM | IC50 [4, 7]: > 20000 nM | IC50 [5]: > 20 µM | IC50 [6]: > 20 µM

O=C(NCCCCCCCCCCNC(=O)c1cc2ccccc2o1)c1cc2ccccc2o1 [Compound 21e, N,N′-(Decane-1,10-Diyl)Bis(Benzofuran-2-Carboxamide)]
IC50 [1]: > 20 µM | IC50 [2]: > 20 µM | IC50 [3]: > 20 µM | IC50 ([4]; Homo sapiens, FaDu, values in nM, read-out: IC50 in FaDu cells): 697 nM | IC50 [4, 7]: < 1000 nM | IC50 [4, 8]: 665 ± 28 nM | SI: selectivity index [4]: >30.08 | IC50 [5]: > 20 µM | IC50 [6]: > 20 µM

O=C(NCCCCCCCCCCNC(=O)c1cc2ccccc2s1)c1cc2ccccc2s1 [Compound 22e, N,N′-(Decane-1,10-Diyl)Bis(Benzo[b]Thiophene-2-Carboxamide)]
IC50 [1]: > 20 µM | IC50 [2]: > 20 µM | IC50 [3]: > 20 µM | SI: selectivity index [4]: >1000 | IC50 [5]: > 20 µM | IC50 [6]: > 20 µM

Cn1cc(C(=O)NCCCCCCCCCCNC(=O)c2cn(C)c3ccccc23)c2ccccc21 [Compound 23e, N,N′-(Decane-1,10-Diyl)Bis(1-Methyl-1H-Indole-3-Carboxamide)]
IC50 [1]: > 20 µM | IC50 [2]: > 20 µM | IC50 [3]: > 20 µM | IC50 [4, 7]: < 1000 nM | IC50 [4, 8]: 638 ± 89 nM | SI: selectivity index [4]: >31.35 | IC50 [5]: > 20 µM | IC50 [6]: > 20 µM

O=C(NCCCCCCCCCCNC(=O)c1ccc2cc[nH]c2c1)c1ccc2cc[nH]c2c1 [Compound 24e, N,N′-(Decane-1,10-Diyl)Bis(1H-Indole-6-Carboxamide)]
IC50 [1]: > 20 µM | IC50 [2]: > 20 µM | IC50 [3]: > 20 µM | IC50 [4, 7]: 5300 ± 366 nM | SI: selectivity index [4]: >3.78 | IC50 [5]: > 20 µM | IC50 [6]: > 20 µM

O=C(/C=C/c1ccc(Cl)cc1)NCCCCCCCCCCNC(=O)/C=C/c1ccc(Cl)cc1 [Compound 25e, (2E,2′E)-N,N′-(Decane-1,10-Diyl)Bis(3-(4-Chlorophenyl)Acrylamide)]
IC50 [1]: > 20 µM | IC50 [2]: > 20 µM | IC50 [3]: > 20 µM | SI: selectivity index [4]: >357.14 | IC50 [5]: > 20 µM | IC50 [6]: > 20 µM

COc1ccc(/C=C/C(=O)NCCCCCCCCCCNC(=O)/C=C/c2ccc(OC)c(O)c2)cc1O [Compound 26e, (2E,2′E)-N,N′-(Decane-1,10-Diyl)Bis(3-(3-Hydroxy-4-Methoxyphenyl)Acrylamide)]
IC50 [1]: > 20 µM | IC50 [2]: > 20 µM | IC50 [3]: > 20 µM | IC50 [4, 7]: > 20000 nM | IC50 [5]: > 20 µM | IC50 [6]: > 20 µM

COc1ccc(/C=C/C(=O)NCCCCCCCCCCNC(=O)/C=C/c2ccc(OC)c(OC)c2)cc1OC [Compound 27e, (2E,2′E)-N,N′-(Decane-1,10-Diyl)Bis(3-(3,4-Dimethoxyphenyl)Acrylamide)]
IC50 [1]: > 20 µM | IC50 [2]: > 20 µM | IC50 [3]: > 20 µM | IC50 [4, 7]: 4620 ± 539 nM | SI: selectivity index [4]: >4.33 | IC50 [5]: > 20 µM | IC50 [6]: > 20 µM

COc1cc(/C=C/C(=O)NCCCCCCCCCCNC(=O)/C=C/c2cc(OC)c(O)c(OC)c2)cc(OC)c1O [Compound 28e, (2E,2′E)-N,N′-(Decane-1,10-Diyl)Bis(3-(4-Hydroxy-3,5-Dimethoxyphenyl)Acrylamide)]
IC50 [1]: > 20 µM | IC50 [2]: > 20 µM | IC50 [3]: > 20 µM | IC50 [4, 7]: > 20000 nM | IC50 [5]: > 20 µM | IC50 [6]: > 20 µM

COc1cc(/C=C/C(=O)NCCCCCCCCCCNC(=O)/C=C/c2cc(OC)c(OC)c(OC)c2)cc(OC)c1OC [Compound 29e, (2E,2′E)-N,N′-(Decane-1,10-Diyl)Bis(3-(3,4,5-Trimethoxyphenyl)Acrylamide)]
IC50 [1]: > 20 µM | IC50 [2]: > 20 µM | IC50 [3]: > 20 µM | IC50 [4, 7]: 5070 ± 461 nM | SI: selectivity index [4]: >3.95 | IC50 [5]: > 20 µM | IC50 [6]: > 20 µM

Nc1ccccc1C(=O)NCCCCCCCCCCNC(=O)c1ccccc1N [Compound 30e, N,N′-(Decane-1,10-Diyl)Bis(2-Aminobenzamide)]
IC50 [1]: > 20 µM | IC50 [2]: > 20 µM | IC50 [3]: > 20 µM | IC50 [4, 7]: > 20000 nM | IC50 [5]: > 20 µM | IC50 [6]: > 20 µM

Nc1ccc(C(=O)NCCCCCCCCCCNC(=O)c2ccc(N)cc2)cc1 [Compound 31e, N,N′-(Decane-1,10-Diyl)Bis(4-Aminobenzamide)]
IC50 [1]: > 20 µM | IC50 [2]: > 20 µM | IC50 [3]: > 20 µM | IC50 [4, 7]: 5590 ± 628 nM | SI: selectivity index [4]: >3.58 | IC50 [5]: > 20 µM | IC50 [6]: > 20 µM
